Test results reported in ChEMBL document CHEMBL1151569, “Diphenylmethyl ethers: synthesis and histamine H3-receptor antagonist in vitro and in vivo activity” (Bioorg Med Chem Lett, 1996).

How the values were obtained:
Histamine H3 receptor = Histamine H3 receptor (Rattus norvegicus, UniProt Q9QYN8); assay: In vitro antagonistic activity against histamine H3-receptor in an assay with K+-evoked depolarisation-induced release of [3H]histamine of synaptosomes of rat cerebral cortex; type: functional, subcellular, Brain
Chain of Histamine H3 receptor (Q9QYN8 whole entry): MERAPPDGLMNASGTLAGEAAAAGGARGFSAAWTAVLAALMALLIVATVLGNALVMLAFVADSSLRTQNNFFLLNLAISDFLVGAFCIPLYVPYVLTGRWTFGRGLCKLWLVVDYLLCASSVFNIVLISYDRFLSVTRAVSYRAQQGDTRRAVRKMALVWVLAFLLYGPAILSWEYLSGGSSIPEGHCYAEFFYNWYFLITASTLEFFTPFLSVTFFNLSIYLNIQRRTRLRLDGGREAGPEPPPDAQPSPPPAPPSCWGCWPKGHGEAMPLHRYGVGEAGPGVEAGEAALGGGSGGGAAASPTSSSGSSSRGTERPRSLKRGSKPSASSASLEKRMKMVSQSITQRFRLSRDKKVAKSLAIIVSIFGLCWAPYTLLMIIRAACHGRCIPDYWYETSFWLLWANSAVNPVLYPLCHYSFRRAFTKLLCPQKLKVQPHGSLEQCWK

[1] = target: Histamine H3 receptor (Mus musculus) (UniProt P58406); assay: In vivo antagonistic activity against histamine H3-receptor of Swiss mice brain after peroral administration; type: functional, organism-based
Chain of Histamine H3 receptor (Mus musculus) (P58406 whole entry): as the sequence (Q9QYN8 whole entry) above, with T15A, A286T, A290G, R387H, I389V counted along it

[2] = target: Histamine H2 receptor (Cavia porcellus) (UniProt P47747); assay: In vitro antagonistic activity against histamine H2-receptor of guinea pig atrium; type: functional, tissue-based; conditions: Cardiac atrium
Chain of Histamine H2 receptor (Cavia porcellus) (P47747 whole entry): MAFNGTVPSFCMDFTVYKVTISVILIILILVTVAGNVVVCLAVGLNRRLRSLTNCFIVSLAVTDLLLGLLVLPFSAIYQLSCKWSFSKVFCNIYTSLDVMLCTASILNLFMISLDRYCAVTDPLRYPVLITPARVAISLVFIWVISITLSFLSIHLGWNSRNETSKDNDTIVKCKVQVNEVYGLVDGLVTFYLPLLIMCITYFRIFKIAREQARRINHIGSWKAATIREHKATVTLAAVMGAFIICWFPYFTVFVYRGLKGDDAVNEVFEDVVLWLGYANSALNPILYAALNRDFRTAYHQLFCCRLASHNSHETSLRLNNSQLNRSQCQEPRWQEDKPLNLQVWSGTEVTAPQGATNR

[3] = target: Histamine H1 receptor (Cavia porcellus) (UniProt P31389); assay: In vitro antagonistic activity against histamine H1-receptor of guinea pig ileum; type: functional, tissue-based
Chain of Histamine H1 receptor (Cavia porcellus) (P31389 whole entry): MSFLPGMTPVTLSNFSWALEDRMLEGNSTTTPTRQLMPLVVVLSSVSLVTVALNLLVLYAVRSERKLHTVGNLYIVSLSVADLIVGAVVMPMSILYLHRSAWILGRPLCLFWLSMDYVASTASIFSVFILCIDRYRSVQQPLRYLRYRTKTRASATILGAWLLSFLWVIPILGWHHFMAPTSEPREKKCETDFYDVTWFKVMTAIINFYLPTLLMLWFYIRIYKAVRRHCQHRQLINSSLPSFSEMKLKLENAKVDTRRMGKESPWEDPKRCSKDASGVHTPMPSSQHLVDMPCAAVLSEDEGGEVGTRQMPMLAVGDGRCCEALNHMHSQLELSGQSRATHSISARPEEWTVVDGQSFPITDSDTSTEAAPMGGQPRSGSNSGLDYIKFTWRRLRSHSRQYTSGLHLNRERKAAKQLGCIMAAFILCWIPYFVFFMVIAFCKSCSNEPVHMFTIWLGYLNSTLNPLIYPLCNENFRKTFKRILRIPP

| SMILES | Ki (Histamine H3 receptor) [nM] | ED50 [1] [mg/kg] | -Log K [2] | Kb [3] [nM] |
| --- | --- | --- | --- | --- |
| Brc1ccc(C(OCCCc2c[nH]cn2)c2ccccc2)cc1 (stereo not given) | 126 | 3.6 | 5.4 | – |
| Clc1ccc(C(OCCCc2c[nH]cn2)c2ccccc2)cc1 (stereo not given) | – | 3.9 | 5.2 | – |
| Fc1ccc(C(OCCCc2c[nH]cn2)c2ccc(F)cc2)cc1 | 25.1 | 1.1 | 5.6 | – |
| Fc1ccc(C(OCCCc2c[nH]cn2)c2ccccc2)cc1 (stereo not given) | 25.1 | 1.2 | 5.3 | – |
| c1ccc(COCCCc2c[nH]cn2)cc1 | 20 | > 10 | 3.7 | 20000 |
| FC(F)(F)c1ccc(C(OCCCc2c[nH]cn2)c2ccccc2)cc1 (stereo not given) | 200 | > 10 | – | – |
| c1ccc2c(COCCCc3c[nH]cn3)cccc2c1 | 20 | 3.2 | 4.9 | – |
| N=C(NCc1ccc(Cl)cc1)SCCCc1c[nH]cn1 | – | 26 | < 6 | > 1000 |
| c1ccc(C(OCCCc2c[nH]cn2)c2ccccc2)cc1 | 25.1 | 2.4 | 5.5 | 501 |
| S=C(NC1CCCCC1)N1CCC(c2cnc[nH]2)CC1 | – | 1 | < 5 | > 100000 |
